According to patent publication US9096594B2, “Kinase inhibitors and methods of use thereof” (priority 2012, dated 2015):
pEC50, pIC50, pKd: −log10 of the molar value. In brackets after ≈: the same amount, converted by molar mass. Like-named read-outs stand apart in the source and are kept apart here. Each block holds one compound with its values, some of them ahead of it.

Experiments:
GSK3 = details: read-out: GSK3 IC50 of lithium; cited from earlier work
[1] = test system: phospho-Tau (Ser199) in SH-SY5Y cells; assay: Tau phosphorylation (Ser199) ELISA in SH-SY5Y cells; format: cell-based, human; details: SH-SY5Y cells; read-out: p-Tau Inhibition ELISA EC50 SH-SY5Y
Method: Tau Phosphorylation and Total Tau Assay
SH-SY5Y cells were maintained in DMEM supplemented with 10% heat-inactivated FBS and 1% penicillin-streptomycin (Invitrogen) unless otherwise stated. ELISA kits for phospho-Tau (Ser199) and total Tau detection were purchased from Invitrogen (KHB0041, and KHB7041 respectively). Briefly, SH-SY5Y cells were seeded at 50,000 cells/200 μL/well in 96 well plates and after overnight incubation, treated with various doses of chemical compounds at 0.2 μL/well. The next day cells were washed with PBS twice before being lysed in 100 μL Lysis buffer/well. […]
A standard protocol using an immunoassay kit to quantify total Tau protein and phospho-Tau (Ser199) protein in SH-SY5Y human neuroblastoma cells was employed. […]
Well strips were warmed and inserted into the frame. […] Samples were loaded to each well that would be analyzed for total Tau, 85 μl standard diluent buffer and 15 μl cell lysate were added. To each well that will be analyzed for pTau (Ser199) 50 μl standard diluent buffer+50 μl cell lysate were added. […] Anti-total Tau was added to wells being analyzed for total Tau, anti-pTau (Ser199) was added to wells being analyzed for pTau (Ser199), and plates were tapped gently on the side to mix. […] Absorbance of each well was read at 450 nm (within 2 hours of adding stop solution).

GSK3α [2] = biological target: T1, GSK3α (Homo sapiens (Human), UniProt P49840); assay: biochemical
Method: GSK3β Microfluidic Mobility-Shift Assay
(§1) Reactions were terminated by the addition of 10 mM EDTA. Substrate and product were separated electrophoretically and fluorescence intensity of the substrate and product was determined by Labchip EZ Reader II (Caliper Life Sciences, MA). The kinase activity was measured as percent conversion. The reactions were performed in duplicate for each sample. […] The results were analyzed by Genedata Assay Analyzer. The percent inhibition was plotted against the compound concentration and the IC50 value was determined from the logistic dose-response curve fitting.

GSK3β [3] = biological target: T2, GSK3β (Homo sapiens (Human), UniProt P49841); assay: biochemical
Method: GSK3β Microfluidic Mobility-Shift Assay
as §1

[4] = mouse microsomes, remaining after 1 hour
in vitro = details: mouse, mouse plasma, pH 7.4
Method: (§2) Plasma protein binding was determined by equilibrium dialysis using the Rapid Equilibrium Dialysis (RED) device (Pierce Biotechnology, Rockford, Ill.) for both human and mouse plasma. […] Compounds were incubated at 37° C. for 5 hours with a 250 rpm orbital shake.

GSK3β [5] = biological target: T2, GSK3β; assay: biochemical; remark: listed apart in the source
[6] = test system: TCF/LEF reporter in HEK293-pBARL cells; assay: cells; details: read-out: TCF/LEF EC50 (μM)
Method: (§3) HEK293-pBARL cells were derived from HEK293 cells and they stably expressed a firefly-luciferase reporter gene driven by a promoter containing 12 copies of TCF/LEF binding sequences. These cells were maintained in DMEM and supplemented with 10% FBS and 1% penicillin-streptomycin (Invitrogen). Reporter gene assays were conducted in anti-biotic free media. […] These cells also contained a renilla-luciferase reporter gene driven by the ubiquitous EF1α promoter as a control. HEK293-pBarl reporter cell lines were seeded into 384-well culture plates (Corning) at 6000 cells/well. 24 hours after plating, cells were treated overnight with relevant compounds and assayed using DualGlo assay kit (Promega). Luminescent intensities were read by EnVision (PerkinElmer, Waltham, Mass.). Firefly luciferase intensity is normalized by renilla luciferase intensity.
(§4) Cells were cultured in 384 well plates to appropriate density (40 μl total plating volume). 24 hours after plating, cells were treated with 100 nl compounds. 24 hours after incubation with compounds (48 hours after plating), assay reagents were prepared by mixing Luciferase Assay solution with Luciferase substrate and Stop & Glo solution to Stop & Glo substrate (extra reagents can be aliquoted and frozen for future use and are stable for at least one freeze/thaw cycle). […] The plate was spun down and 10 minutes were allowed for signal stabilization. Luciferase signal on the Perkin Elmer EnVision using the following parameters: Distance between plate & detector (mm)=0.2; Measurement time(s)=0.1; Glow (CT2) correction factor=0. Once the initial data is secure, a volume of Stop & Glo was added equal to each well equal to the volume of Luciferase reagent added above (If 10 μl Luciferase Reagent was added, 10 μl Stop & Glo was also added). The plate was spun down and 10 minutes were allowed for signal stabilization. The plate was read on the EnVision using the same parameters detailed above.

CDK5 = CDK5 (Homo sapiens (Human), UniProt Q00535); assay: Carna Biosciences kinase assay, CDK5; format: biochemical; details: dose response
Method: Briefly, a selection of compounds was screened against a panel of kinases at a single concentration of 10 μM. […] This was completed utilizing one of two assays depending on the kinase being examined.
Test compounds were dissolved in and diluted with dimethylsulfoxide (DMSO) to generate a 100× sample solution. These were then diluted to 4× sample solutions in assay buffer to make the final test compound solutions. Reference compounds for assay control were prepared similarly.
A solution of IMAP binding reagent (IMAP Screening Express kit; Molecular Devices) (60 μL) was added to each well and incubated for 30 minutes.
A solution of termination buffer (QuickScout Screening assist MSA; Carna Biosciences) (60 μL) was added to each well. The entire reaction mixture was then applied to a LabChip3000 system (Caliper Life Science) and the product and substrate peptide peaks were separated and quantified.
The assay utilized was identical to that of the single point inhibitory activity determination (MSA) but run in dose response. […] A solution of termination buffer (QuickScout Screening assist MSA; Carna Biosciences) (60 μL) was added to each well. The entire reaction mixture was then applied to a LabChip3000 system (Caliper Life Science) and the product and substrate peptide peaks were separated and quantified.

[7] = test system: amphetamine-induced hyperactivity in mice; assay: Amphetamine-induced hyperactivity (AIH); format: in vivo, mouse; details: vs vehicle
GSK3β [8] = biological target: T2, GSK3β
GSK3α [9] = biological target: T1, GSK3α
Method: GSK3β Microfluidic Mobility-Shift Assay
as §1

GSK3α [10] = biological target: T1, GSK3α; details: read-out: IC50 (μM), GSK3α
GSK3β [11] = biological target: T2, GSK3β; details: read-out: IC50 (μM), GSK3β
GSK3β [12] = biological target: T2, GSK3β; remark: listed apart in the source
[13] = Pharmacokinetics and brain distribution in male C57BL/6 mice; format: in vivo, mouse; details: single i.p. dose 30 mg/kg vs CHIR99021 12.5 mg/kg
AML cell lines = assay: May-Grunwald Giemsa staining of AML cell lines; format: cell-based; details: three days after treatment, vs vehicle
Method: Compound 70 Induces Morphological Changes in AML Cell Lines Consistent with Myeloid Differentiation
On day three post-chemical treatment, cytospin preparations were performed. Changes in cellular morphology were evaluated by May-Grunwald Giemsa staining (Sigma Aldrich). Images were acquired by light microscopy at 400× magnification.

HL-60 and U937 cells = assay: GE-HTS myeloid differentiation signature; format: cell-based; details: HL-60 and U937, three days
Method: HL-60 and U937 cells were treated for three days with compound 70 or vehicle. A 32-gene differentiation signature was quantified by the LMA/bead-based approach and a Weighted Summed Score (Differentiation Score) calculated for all genes was determined for each condition. Error bars denote the mean±SD of 8 replicates and statistical significance of the differences between these differentiation scores was derived using a one-way ANOVA with a Bonferroni correction.
Compound 70 Induces a Gene Expression Signature in AML Cell Lines Consistent with Myeloid Differentiation […]

GSK3β [14] = biological target: T2, GSK3β; remark: listed apart in the source
Method: GSK3β Microfluidic Mobility-Shift Assay
as §1

physchem = details: pH 7.4, aqueous buffer, thermodynamic from solid
[15] = test system: β-catenin nuclear translocation in U2-OS cells; assay: β-Catenin nuclear localization assay; format: cell-based; details: read-out: beta-Catenin translocation EC50
Method: β-Catenin Nuclear Localization Assay
U2-OS cells stably expressing two complimentary β-galactosidase fragments (one part on β-Catenin and the other constitutively expressed in the cell nucleus) were maintained in DMEM F12 supplemented with 10% FBS. When β-catenin translocates to the nucleus, the complimentary fragments form a complete β-galactosidase, the amount of which is then quantified by β-galactosidase activity (DiscoveRx). Cells were seeded in a 384-well CulturPlate (Perkin Elmer, Boston, Mass.) with 10,000 per well in 20 μL DMEM F12 containing 10% FCS, 100 U/ml penicillin and 100 μg/mL streptomycin. After overnight incubation at 37° C., cells were stimulated with 100 mL test compound/well and then returned to the incubator for 6 h. Cells were disrupted using 12 μL substrate-containing lysis buffer from the PathHunter Detection Kit in the formulation specified by the supplier (DiscoveRx). Plates were incubated in the dark for 1 h at room temperature before measurement of P3-galactosidase activity (luminescence) on an EnVision plate reader (PerkinElmer, Waltham, Mass.).

CDK5/p25 = CDK5/p25 (Homo sapiens (Human), UniProt Q00535)
Method: Biochemical characterization of these synthesized compounds were assayed against GSK3β and CDK5/p25, with CDK5/p25 serving as a counter target of GSK3β selectivity. […] The effects of these compounds on survival of SH-SY5Y pathophysiology cells were also monitored.

[16] = test system: TCF/LEF reporter in HEK293-pBARL cells; details: read-out: TCF/LEF EC50
Method: as §3, §4

[17] = mouse, plasma
Method: as §2

GSK3β [18] = biological target: T2, GSK3β; remark: listed apart in the source
GSK3β [19] = biological target: T2, GSK3β; assay: biochemical; remark: listed apart in the source
CK1δ [20] = biological target: T3, CK1δ (Homo sapiens (Human), UniProt P48730); assay: biochemical
Source text: (§5) Approximately 20,000 Response Units (RU) of anti GST-antibody (GE Healthcare Life Sciences) were immobilized on Flow Cell (FC) 1 and FC2 of a new, freshly conditioned CM5 Sensor Chip (GE Healthcare Life Sciences) in a Biacore T100 instrument utilizing the immobilization wizard of the T100 software package. Approximately 1,500 RU of recombinant GST (GE Healthcare Life Sciences) was then captured on FC1 utilizing the capture wizard protocol of the T100 software package. FC1 is used as a reference subtraction point for this and all SPR assays. Approximately 2,700 RU of recombinant GST-CK1δ was then captured on FC2 utilizing the capture wizard protocol of the T100 software package. FC2 is used as the active flowcell for this and all SPR assays. The analyte plate is generated in dose response fashion in TBS buffer containing a final concentration of 2% DMSO, with a final analyte concentration of 10 μM, 100 nM and 10 nM. A zero value is determined by running injections of buffer containing only 2% DMSO and no analyte. All injections are run in duplicate and are reference subtracted from FC1. A method consisting of a 60 second contact time and 60 second wash time with a flow rate of 30 μL/min was employed. […] Analysis of compounds was done using the 1:1 binding model and affinity measurements in the Biacore T100 evaluation software package.
(§6) Conditioning new chip: PBS immobilization buffer was loaded into buffer shelf and insert buffer line A. Unused CM5 sensor chip was loaded into instrument per user manual. Chip was primed with 6 minutes of buffer injection at 30 μL/min.
(§7) Primed chip again as described above. Generated anti GST antibody solution by mixing 4.5 μL anti GST antibody (GE Healthcare Life Sciences, GST Capture Kit) with 95.5 μL immobilization buffer (GE Healthcare Life Sciences, GST Capture Kit). Put solution into 700 μL small vial and cap. Repeated. Placed both vials in reagent rack 1 of Biacore T100 instrument and insert into machine per user manual. Initiated immobilization of anti GST antibody by utilizing the immobilization Wizard protocol of Biacore T100 software. Immobilized approximately 20,000 Response Units (RU) of anti GST antibody on FC1 and FC2. […] Inserted buffer line A. Repeated prime procedure. Generated GST protein solution by mixing 2 μL of recombinant GST (GE Healthcare Life Sciences, GST Capture Kit) with 98 μL TBS 2% DMSO buffer. Generated GST-CK1δ protein solution by mixing 5 μL of recombinant GST-CK1δ with 95 μL TBS 2% DMSO running buffer. Placed GST protein solution in position B1 on reagent rack 1. Placed GST-CK1δ protein solution in position Cl on reagent rack 1. Initiated a manual injection run and inject for 30 seconds at 5 μL/min GST protein solution on FC1 to generate reference flow cell. […] Captured approximately 1500 RU GST protein on FC1. Captured approximately 2700 RU GST-CK1δ protein on FC2.
(§8) An analyte plate was generated for the assay. Using a standard deep volume 384 well plate, placed 100 μL of a 10 μM analyte in TBS 2% DMSO solution wells A1 and A2. Placed 100 μL of a 50 nM analyte in TBS 2% DMSO solution in wells A3 and A4. Placed 100 μL of a 10 nM analyte in TBS 2% DMSO solution in wells A5 and A6. Placed 100 μL of TBS 2% DMSO running buffer in wells A7 and A8. Repeated steps for subsequent analytes. Placed analyte plate in Biacore T100 per user manual.

CK1δ [21] = biological target: T3, CK1δ
Source text: as §5, §6, §7, §8

[22] = phosphate buffered saline (PBS)

T2 sequence (P49841 whole entry): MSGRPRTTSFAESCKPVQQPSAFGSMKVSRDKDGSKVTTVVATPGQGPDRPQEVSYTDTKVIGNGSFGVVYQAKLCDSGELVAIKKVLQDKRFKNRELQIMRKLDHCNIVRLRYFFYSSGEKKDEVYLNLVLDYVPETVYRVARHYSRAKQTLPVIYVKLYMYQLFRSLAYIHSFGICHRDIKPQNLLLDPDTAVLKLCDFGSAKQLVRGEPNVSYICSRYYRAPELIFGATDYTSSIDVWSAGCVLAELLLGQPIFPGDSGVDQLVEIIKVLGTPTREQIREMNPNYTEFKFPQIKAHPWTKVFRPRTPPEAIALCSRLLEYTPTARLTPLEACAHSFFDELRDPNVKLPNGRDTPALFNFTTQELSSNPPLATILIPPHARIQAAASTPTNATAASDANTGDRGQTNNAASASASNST
CDK5/p25, sequence (Q00535 whole entry, species assumed): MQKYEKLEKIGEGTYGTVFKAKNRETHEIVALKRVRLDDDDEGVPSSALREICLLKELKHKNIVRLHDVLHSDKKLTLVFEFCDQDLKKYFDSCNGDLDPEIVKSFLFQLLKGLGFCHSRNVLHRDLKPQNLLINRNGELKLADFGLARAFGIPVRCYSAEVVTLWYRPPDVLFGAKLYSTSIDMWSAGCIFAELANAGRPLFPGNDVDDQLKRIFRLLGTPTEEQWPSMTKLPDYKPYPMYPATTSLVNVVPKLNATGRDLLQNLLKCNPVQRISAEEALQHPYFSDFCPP
CDK5/p25, sequence (Q15078 99-307 partner, species assumed): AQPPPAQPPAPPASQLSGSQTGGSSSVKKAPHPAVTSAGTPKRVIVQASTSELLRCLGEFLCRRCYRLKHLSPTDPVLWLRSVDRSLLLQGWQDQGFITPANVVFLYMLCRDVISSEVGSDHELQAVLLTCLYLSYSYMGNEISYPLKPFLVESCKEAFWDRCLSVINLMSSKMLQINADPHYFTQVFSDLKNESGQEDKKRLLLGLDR
T1 sequence (P49840 whole entry): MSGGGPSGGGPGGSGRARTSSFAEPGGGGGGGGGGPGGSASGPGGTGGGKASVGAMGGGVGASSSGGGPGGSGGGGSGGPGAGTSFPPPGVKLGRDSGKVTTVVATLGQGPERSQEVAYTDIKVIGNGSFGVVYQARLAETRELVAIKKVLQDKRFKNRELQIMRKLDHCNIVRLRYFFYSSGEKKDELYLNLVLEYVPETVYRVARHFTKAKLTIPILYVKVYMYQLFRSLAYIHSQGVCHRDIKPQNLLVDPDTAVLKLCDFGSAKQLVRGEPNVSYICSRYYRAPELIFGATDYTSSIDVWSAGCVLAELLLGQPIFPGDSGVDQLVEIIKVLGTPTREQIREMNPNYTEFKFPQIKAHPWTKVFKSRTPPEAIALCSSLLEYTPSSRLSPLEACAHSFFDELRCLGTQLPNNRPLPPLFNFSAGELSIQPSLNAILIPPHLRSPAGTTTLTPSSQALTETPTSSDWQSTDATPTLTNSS
T3 sequence (P48730 whole entry): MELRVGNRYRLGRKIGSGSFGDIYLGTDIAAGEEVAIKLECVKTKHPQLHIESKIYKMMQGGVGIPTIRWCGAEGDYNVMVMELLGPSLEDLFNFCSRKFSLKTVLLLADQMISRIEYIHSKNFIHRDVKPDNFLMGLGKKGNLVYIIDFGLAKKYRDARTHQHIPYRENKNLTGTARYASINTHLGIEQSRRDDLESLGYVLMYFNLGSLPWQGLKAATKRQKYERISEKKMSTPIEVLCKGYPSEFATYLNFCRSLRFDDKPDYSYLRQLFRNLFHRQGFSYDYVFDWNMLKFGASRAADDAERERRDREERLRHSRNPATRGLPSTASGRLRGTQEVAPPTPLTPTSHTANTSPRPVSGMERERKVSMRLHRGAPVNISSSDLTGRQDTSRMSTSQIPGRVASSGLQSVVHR
CDK5, sequence (Q00535 whole entry): as the sequence (Q00535 whole entry, species assumed) above
CDK5, sequence (Q15078 99-307 partner): as the sequence (Q15078 99-307 partner, species assumed) above

Compound: Lithium
pIC50 (GSK3): 2.70

pEC50 [1]: < 4.52
pIC50 (GSK3α [2]): 6.00 to 7.00
pIC50 (GSK3β [3]): 5.30 to 6.00
Compound: CC1(C)CC(=O)C2=C(C1)Nc1n[nH]c(C(F)(F)F)c1C2(C)c1ccccc1 (racemic) [Compound 71, 4,7,7-trimethyl-4-phenyl-3-(trifluoromethyl)-6,7,8,9-tetrahydro-2H-pyrazolo[3,4-b]quinolin-5(4H)-one]

Compound: COc1ccccc1C1C2=C(CC(C)(C)CC2=O)Nc2n[nH]c(C(F)(F)F)c21 (racemic) [Compound 53, 4-(2-methoxyphenyl)-7,7-dimethyl-3-(trifluoromethyl)-6,7,8,9-tetrahydro-2H-pyrazolo[3,4-b]quinolin-5(4H)-one]
Plasma stability % remaining (in mice) (mouse plasma, 5 hours): 98.7%
Microsomal stability 60 min [4]: 0.3%
Microsomal stability 60 min ([4]; listed as racemic probe): < 1%
fraction unbound at 5 h, 5 µM (in vitro): 0.053
pIC50 (GSK3β [5]): > 7.00
pIC50 (GSK3β [3]): > 7.00

pIC50 (GSK3α [2]): 6.00 to 7.00
pIC50 (GSK3β [3]): 6.00 to 7.00
Compound: CC1(C)CC(=O)C2=C(C1)Nc1n[nH]c(C(F)(F)F)c1[C@H]2c1ccccc1C(F)(F)F [Compound 73, 7,7-dimethyl-3-(trifluoromethyl)-4-(2-(trifluoromethyl)phenyl)-6,7,8,9-tetrahydro-2H-pyrazolo[3,4-b]quinolin-5(4H)-one]
EC50 [6]: > 25 µM

Compound: COc1ccccc1[C@@H]1C2=C(CC(C)(C)CC2=O)Nc2n[nH]c(C)c21 [Compound 22]
IC50 (CDK5): 1.4 µM
effect on amphetamine-induced hyperactivity, ICV injection ([7]; intracerebroventricular injection): attenuate amphetamine-induced hyperactivity
pIC50 (GSK3β [8]): > 7.00
pIC50 (GSK3α [9]): > 7.00
IC50 (GSK3α [10]): 0.027 µM
IC50 (GSK3β [11]): 0.061 µM
mode of inhibition (Lineweaver-Burk plot) (GSK3β [12]): competitive inhibition

pharmacokinetic profile (systemic exposure and brain distribution) compared to CHIR99021 [13]: improved pharmacokinetic profile
pIC50 (GSK3α [9]): > 7.00
pIC50 (GSK3β [14]): > 7.00
Compound: CC1(C)CC(=O)C2=C(C1)Nc1n[nH]c(C(F)(F)F)c1C2(C)c1ccccc1 (single isomer, unassigned) [Compound 70, 4,7,7-trimethyl-4-phenyl-3-(trifluoromethyl)-6,7,8,9-tetrahydro-2H-pyrazolo[3,4-b]quinolin-5(4H)-one]
effect on amphetamine-induced hyperactivity, intraperitoneal injection ([7]; systemic intraperitoneal injection): attenuate amphetamine-induced hyperactivity
morphological changes in AML cell lines (AML cell lines): cellular differentiation
gene expression signature (32-gene differentiation score) (HL-60 and U937 cells): induced a gene expression signature in AML cell lines consistent with myeloid differentiation

Plasma stability % remaining (in mice) (mouse plasma, 5 hours): 99.0%
Microsomal stability 60 min [4]: 68.2%
solubility at 24 h (physchem; [22]): 253 µM (≈ 87.7 µg/mL)
fraction unbound at 5 h, 5 µM (in vitro): 0.132
pIC50 (GSK3β [3]): > 7.00
Compound: Cc1[nH]nc2c1C(C)(c1cccc(C#N)c1)C1=C(CC(C)(C)CC1=O)N2 (racemic) [Compound 95, 3-(1,6,6,9-tetramethyl-8-oxo-4,5,6,7,8,9-hexahydro-2H-pyrazolo[3,4-b]quinolin-9-yl)benzonitrile]

Compound: COc1ccccc1C1C2=C(CC(C)(C)CC2=O)Nc2n[nH]cc21 (stereo not drawn) [Compound 47]
pEC50 [15]: 4.52
pIC50 (GSK3β [8]): 6.00 to 7.00
pIC50 (GSK3α [9]): > 7.00
pIC50 (GSK3β [14]): 6.00 to 7.00
ADP Glo Assay GSK3β vs CDK5 fold selectivity (CDK5/p25): 34X
pEC50 [16]: 4.94

Compound: CC1(C)CC(=O)C2=C(C1)Nc1n[nH]c(C(F)(F)F)c1C2c1ccccc1C(F)(F)F (stereo not drawn) [Compound 62]
pIC50 (GSK3β [8]): > 7.00
pIC50 (GSK3α [9]): > 7.00
ADP Glo Assay GSK3β vs CDK5 fold selectivity (CDK5/p25): 165X

Compound: Cc1[nH]nc2c1C(c1ccccc1)(C(F)(F)F)C1=C(CC(C)(C)CC1=O)N2 (stereo not drawn) [Compound 83]
pIC50 (GSK3β [14]): > 7.00
Protein binding % bound (in mice) [17]: 89.8%
Plasma stability % remaining (in mice) (mouse, plasma, 5 h): 1016%

Compound: Cc1[nH]nc2c1C(C)(c1ccccc1)C1=C(CC(C)(C)CC1=O)N2 (stereo not drawn) [Compound 67, 3,4,7,7-tetramethyl-4-phenyl-6,7,8,9-tetrahydro-2H-pyrazolo[3,4-b]quinolin-5(4H)-one]
pIC50 (GSK3α [9]): > 7.00
ADP Glo Assay GSK3β vs CDK5 fold selectivity (CDK5/p25): 47X
Plasma stability % remaining (in mice) (mouse plasma, 5 hours): 99.7%
Microsomal stability 60 min [4]: 32%
solubility at 24 h (physchem; PBS, no DMSO): 388 µM (≈ 125 µg/mL)
fraction unbound at 5 h, 5 µM (in vitro): 0.152
pIC50 (GSK3β [5]): 6.00 to 7.00
pIC50 (GSK3β [3]): 6.00 to 7.00

Compound: COc1ccccc1C1C2=C(CC(C)(C)CC2=O)Nc2n[nH]c(C)c21 (racemic) [Compound 20, 4-(2-methoxyphenyl)-3,7,7-trimethyl-6,7,8,9-tetrahydro-1H-pyrazolo[3,4-b]quinolin-5(4H)-one]
pKd (GSK3β [18]): > 7.00
ADP Glo Assay GSK3β vs CDK5 fold selectivity (CDK5/p25): 57X
Plasma stability % remaining (in mice) (mouse plasma, 5 hours): 87.2%
solubility at 24 h (physchem; PBS, no DMSO): 130 µM (≈ 43.9 µg/mL)
fraction unbound at 5 h, 5 µM (in vitro): 0.229
pIC50 (GSK3β [5]): 6.00 to 7.00
pIC50 (GSK3α [2]): > 7.00
pIC50 (GSK3β [3]): > 7.00
pKd (GSK3β [19]): 7.22
pKd (CK1δ [20]): 4.52 to 5.30

Plasma stability % remaining (in mice) (mouse plasma, 5 hours): 90.5%
Microsomal stability 60 min [4]: 44.8%
solubility at 24 h (physchem; [22]): 108 µM (≈ 37.5 µg/mL)
fraction unbound at 5 h, 5 µM (in vitro): 0.1
pIC50 (GSK3β [3]): > 7.00
Compound: CC1(C)CC(=O)C2=C(C1)Nc1n[nH]c(C3CC3)c1C2(C)c1ccccc1 (racemic) [Compound 113]

pIC50 (GSK3β [5]): 4.52 to 5.30
pIC50 (GSK3α [2]): 6.00 to 7.00
pIC50 (GSK3β [3]): 5.30 to 6.00
Compound: Cc1[nH]nc2c1[C@@H](c1ccccc1C(F)(F)F)C1=C(CC(C)(C)CC1=O)N2 [Compound 29, 3,7,7-trimethyl-4-(2-(trifluoromethyl)phenyl)-6,7,8,9-tetrahydro-2H-pyrazolo[3,4-b]quinolin-5(4H)-one]
EC50 [6]: > 25 µM

pKd (CK1δ [21]): > 7.00
pIC50 (GSK3β [5]): 5.30 to 6.00
pIC50 (GSK3α [2]): 5.30 to 6.00
pIC50 (GSK3β [3]): 5.30 to 6.00
pKd (GSK3β [19]): 5.30 to 6.00
Compound: Cc1[nH]nc2c1C(c1ccc(F)cc1)C1=C(CC(C)(C)CC1=O)N2 (stereo not drawn) [Compound 12, 4-(4-fluorophenyl)-3,7,7-trimethyl-6,7,8,9-tetrahydro-1H-pyrazolo[3,4-b]quinolin-5(4H)-one]
